Test results from patent publication US10738056B2 (Aduro BioTech, Inc., priority 2017, dated 2020).

What was measured:
[1] = target: Human cGAS amino acids 155-522 (Homo sapiens (Human), UniProt Q8N884); experiment: cGAS biochemical activity assay (ATP remaining, Kinase-Glo Max luminescence); details: human cGAS 155-522, ATP remaining (Kinase-Glo Max); read-out: cGAS IC50
[2] = system: cGAS/STING pathway in THP1 cells; experiment: THP1 cell-based cGAS/STING pathway activity assay (IRF-3-linked luciferase reporter); details: Homo sapiens, THP-1
In short: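 THP1 cells carrying an IRF-3-driven luciferase reporter were read across a range of compound concentrations, and IC50 values were derived from these concentration responses; the assay upper limit was 100 μM.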

[3] = system: RANTES/CCL5 secretion by Trex1-KO BMM; experiment: Inhibition of RANTES/CCL5 secretion by Trex1-KO bone marrow-derived macrophages; format: cell-based, mice; set-up: key to BMM IC50 R (RANTES): A: an IC50 value less than 5 μM; B: an IC50 value between 5 and 20 μM; where an IC50 value could not be calculated from the data; details: RANTES secretion; for IC50: Mus musculus, Macrophage, read-out: BMM IC50 R (RANTES)
Description: (§1) A cellular assay can be used to asses the compounds of the invention for their ability to inhibit cytokine production. Bone marrow macrophages harvested from mice can be used to determine response as a function of compound concentration.
(§2) The inhibition of secreted cytokine was measured in bone marrow-derived macrophages (BMMs) from diseased mice to evaluate the potency of compounds of the invention as described herein. […] To derive bone marrow macrophages, marrow extracted from the femurs and tibias were harvested from Trex1-KO mice was cultured in growth media supplemented with macrophage colony-stimulating factor (M-CSF). Differentiated BMM were harvested and frozen for subsequent experimentation. For treatment with compound C1089 (see Example 13), a frozen stock of Trex1-KO BMM was thawed and 1×10^5 cells were plated in 96 well format. BMMs were treated with a dilution series of C1089 and incubated overnight at 37° C. 5% CO2, at which point cellular supernatants were harvested and stored at −80° C. for subsequent analysis. The media used for this dilution series was without FBS. Remaining cells were evaluated for viability using Cell Titer Glo 2.0 kit according to the manufacturer instructions. BMM supernatants were evaluated for the secreted cytokine […] (RANTES/CCL5) or for secreted cytokine monocyte chemoattractant protein 1 (MCP-1/CCL2) using cytometric bead array mouse Flex Set kits (BD Biosciences). Cytokine concentration was calculated from a standard curve and normalized to vehicle (DMSO) treated cells.

[4] = system: MCP-1/CCL2 secretion by Trex1-KO BMM; experiment: Inhibition of MCP-1/CCL2 secretion by Trex1-KO bone marrow-derived macrophages; format: cell-based, mice; set-up: key to BMM IC50 M (MCP-1): A: an IC50 value less than 5 μM; B: an IC50 value between 5 and 20 μM; where an IC50 value could not be calculated from the data; details: MCP-1 secretion; for IC50: Mus musculus, Macrophage, read-out: BMM IC50 M (MCP-1)
Description: as §1, §2

Sequence of Human cGAS amino acids 155-522 (Q8N884 157-522): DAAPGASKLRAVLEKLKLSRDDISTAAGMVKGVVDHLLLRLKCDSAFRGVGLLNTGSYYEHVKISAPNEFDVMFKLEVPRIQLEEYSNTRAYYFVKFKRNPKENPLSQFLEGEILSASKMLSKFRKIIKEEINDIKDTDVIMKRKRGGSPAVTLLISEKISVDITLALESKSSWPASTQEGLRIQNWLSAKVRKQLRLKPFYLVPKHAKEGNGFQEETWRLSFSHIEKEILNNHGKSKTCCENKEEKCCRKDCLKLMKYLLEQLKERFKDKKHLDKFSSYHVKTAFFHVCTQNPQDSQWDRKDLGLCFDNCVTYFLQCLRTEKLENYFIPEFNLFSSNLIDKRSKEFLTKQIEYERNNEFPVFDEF

IC50 [1] | IC50 [2] | BMM IC50 R (RANTES) [3] | BMM IC50 M (MCP-1) [4] | IC50 [4] | IC50 [3] | SMILES
20 to 250 µM | > 100 µM | C | C |  |  | Cc1[nH]c2c(-c3ccccc3)c(C(F)(F)F)nn2c(=O)c1-c1nc2c(C(N)=O)cccc2o1 [Compound C1074, 2-(5-methyl-7-oxo-3-phenyl-2-(trifluoromethyl)-4,7-dihydropyrazolo[1,5-a]pyrimidin-6-yl)benzo[d]oxazole-4-carboxamide]
< 20 µM | < 20 µM | C |  | < 5 µM |  | COc1ccc(C(N)=O)c2oc(-c3c(C)[nH]c4c(-c5ccccc5)c(C(F)(F)F)nn4c3=O)nc12 [Compound C1113, 4-methoxy-2-(5-methyl-7-oxo-3-phenyl-2-(trifluoromethyl)-4,7-dihydropyrazolo[1,5-a]pyrimidin-6-yl)benzo[d]oxazole-7-carboxamide]
< 20 µM | < 20 µM | C | C |  |  | COc1cccc2oc(-c3c(C)[nH]c4c(-c5ccccc5F)c(C(F)(F)F)nn4c3=O)nc12 [Compound C1091, 3-(2-fluorophenyl)-6-(4-methoxybenzo[d]oxazol-2-yl)-5-methyl-2-(trifluoromethyl)pyrazolo[1,5-a]pyrimidin-7(4H)-one]
< 20 µM | < 20 µM | C | C |  |  | Cc1[nH]c2c(-c3ccccc3)c(C(F)(F)F)nn2c(=O)c1C(=O)Nc1cc(Br)cc(CN(C)C)c1 [Compound A1139, N-(3-bromo-5-((dimethylamino)methyl)phenyl)-5-methyl-7-oxo-3-phenyl-2-(trifluoromethyl)-4,7-dihydropyrazolo[1,5-a]pyrimidine-6-carboxamide]
< 20 µM | > 100 µM | C | C |  |  | COc1cc(Cl)cc2oc(-c3c(C)[nH]c4c(-c5ccccc5)c(C#N)nn4c3=O)nc12 [Compound C1160, 6-(6-chloro-4-methoxybenzo[d]oxazol-2-yl)-5-methyl-7-oxo-3-phenyl-4,7-dihydropyrazolo[1,5-a]pyrimidine-2-carbonitrile]
< 20 µM | < 20 µM | C | C |  |  | COc1cccc2oc(-c3c(Cl)[nH]c4c(-c5ccccc5)c(C(F)(F)F)nn4c3=O)nc12 [Compound C1071, 5-chloro-6-(4-methoxybenzo[d]oxazol-2-yl)-3-phenyl-2-(trifluoromethyl)pyrazolo[1,5-a]pyrimidin-7(4H)-one]
< 20 µM | < 20 µM | C | C |  |  | Cc1[nH]c2c(-c3ccccc3)c(C(F)(F)F)nn2c(=O)c1C(=O)Nc1cccc(OC2CCCC2)c1 [Compound A1082, N-(3-(cyclopentyloxy)phenyl)-5-methyl-7-oxo-3-phenyl-2-(trifluoromethyl)-4,7-dihydropyrazolo[1,5-a]pyrimidine-6-carboxamide]
< 20 µM | < 20 µM |  |  | 5 to 20 µM | < 5 µM | CSc1cccc2oc(-c3c(C)[nH]c4c(-c5ccccc5)c(C(F)(F)F)nn4c3=O)nc12 [Compound C1047, 5-methyl-6-(4-(methylthio)benzo[d]oxazol-2-yl)-3-phenyl-2-(trifluoromethyl)pyrazolo[1,5-a]pyrimidin-7(4H)-one]
< 20 µM | < 20 µM | C | C |  |  | COc1cccc2oc(-c3c(C(F)(F)F)[nH]c4c(-c5ccccc5)c(C(F)(F)F)nn4c3=O)nc12 [Compound C1077, 6-(4-methoxybenzo[d]oxazol-2-yl)-3-phenyl-2,5-bis(trifluoromethyl)pyrazolo[1,5-a]pyrimidin-7(4H)-one]
< 20 µM | 20 to 100 µM | C | C |  |  | COc1c(C#N)ccc2oc(-c3c(C)[nH]c4c(-c5ccccc5)c(C(F)(F)F)nn4c3=O)nc12 [Compound C1126, 4-methoxy-2-(5-methyl-7-oxo-3-phenyl-2-(trifluoromethyl)-4,7-dihydropyrazolo[1,5-a]pyrimidin-6-yl)benzo[d]oxazole-5-carbonitrile]
< 20 µM | < 20 µM | C |  | 5 to 20 µM |  | COc1cccc2oc(-c3c(CSC)[nH]c4c(-c5ccccc5)c(C(F)(F)F)nn4c3=O)nc12 [Compound C1136, 6-(4-methoxybenzo[d]oxazol-2-yl)-5-((methylthio)methyl)-3-phenyl-2-(trifluoromethyl)pyrazolo[1,5-a]pyrimidin-7(4H)-one]
< 20 µM | < 20 µM | C | C |  |  | Cc1[nH]c2c(-c3ccccc3)c(C(F)(F)F)nn2c(=O)c1-c1nc2c(Cl)cccc2o1 [Compound C1055, 6-(4-chlorobenzo[d]oxazol-2-yl)-5-methyl-3-phenyl-2-(trifluoromethyl)pyrazolo[1,5-a]pyrimidin-7(4H)-one]
< 20 µM | < 20 µM |  | C |  | < 5 µM | COc1cccc2oc(-c3c(C(F)(F)F)[nH]c4c(-c5ccccc5)c(C#N)nn4c3=O)nc12 [Compound C1118, 6-(4-methoxybenzo[d]oxazol-2-yl)-7-oxo-3-phenyl-5-(trifluoromethyl)-4,7-dihydropyrazolo[1,5-a]pyrimidine-2-carbonitrile]
< 20 µM | < 20 µM | C | C |  |  | COCc1[nH]c2c(-c3ccccc3)c(C#N)nn2c(=O)c1-c1nc2c(OC)cc(Cl)cc2o1 [Compound C1145, 6-(6-chloro-4-methoxybenzo[d]oxazol-2-yl)-5-(methoxymethyl)-7-oxo-3-phenyl-4,7-dihydropyrazolo[1,5-a]pyrimidine-2-carbonitrile]
< 20 µM | < 20 µM | C | C |  |  | COc1ccc(N)c2oc(-c3c(C)[nH]c4c(-c5ccccc5)c(C(F)(F)F)nn4c3=O)nc12 [Compound C1154, 6-(7-amino-4-methoxybenzo[d]oxazol-2-yl)-5-methyl-3-phenyl-2-(trifluoromethyl)pyrazolo[1,5-a]pyrimidin-7(4H)-one]
< 20 µM | 20 to 100 µM | C | C |  |  | Cc1[nH]c2c(-c3ccccc3)c(C(F)(F)F)nn2c(=O)c1-c1nc(C(=O)O)c(C2CCCCC2)o1 [Compound C1169, 5-cyclohexyl-2-(5-methyl-7-oxo-3-phenyl-2-(trifluoromethyl)-4,7-dihydropyrazolo[1,5-a]pyrimidin-6-yl)oxazole-4-carboxylic acid]
< 20 µM | > 100 µM | C | C |  |  | COc1ccc(Cl)c2oc(-c3c(C)[nH]c4c(-c5ccccc5)c(C#N)nn4c3=O)nc12 [Compound C1205, 6-(7-chloro-4-methoxybenzo[d]oxazol-2-yl)-5-methyl-7-oxo-3-phenyl-4,7-dihydropyrazolo[1,5-a]pyrimidine-2-carbonitrile]
< 20 µM | < 20 µM |  |  | 5 to 20 µM | 5 to 20 µM | COCc1[nH]c2c(-c3ccccc3)c(C#N)nn2c(=O)c1-c1nc2c(OC)cccc2o1 [Compound C1139, 6-(4-methoxybenzo[d]oxazol-2-yl)-5-(methoxymethyl)-7-oxo-3-phenyl-4,7-dihydropyrazolo[1,5-a]pyrimidine-2-carbonitrile]
< 20 µM | 20 to 100 µM | C | C |  |  | COc1cccc2oc(-c3c(CCC(=O)O)[nH]c4c(-c5ccccc5)c(C(F)(F)F)nn4c3=O)nc12 [Compound C1173, 3-(6-(4-methoxybenzo[d]oxazol-2-yl)-7-oxo-3-phenyl-2-(trifluoromethyl)-4,7-dihydropyrazolo[1,5-a]pyrimidin-5-yl)propanoic acid]
< 20 µM | 20 to 100 µM | C | C |  |  | COCc1[nH]c2c(-c3ccccc3)c(C(F)(F)F)nn2c(=O)c1-c1nnc(C2CCCC2)o1 [Compound D1018, 6-(5-cyclopentyl-1,3,4-oxadiazol-2-yl)-5-(methoxymethyl)-3-phenyl-2-(trifluoromethyl)pyrazolo[1,5-a]pyrimidin-7(4H)-one]
